Entries after “also recorded” stand apart in the source; their conditions may differ.
Experiments:
[1] = tested on: galectin-3 (LGALS3); experiment: Serum galectin-3 (LGALS3) by ELISA in NPC1 patients treated or not with miglustat; format: in vivo, human
Experimental: (§1) Since 60% of the patients were being treated with off-label miglustat, the effect of treatment on LGALS3 or CTSD concentrations were investigated. […] Since individual responses could be masked by the large degree of variation between patients, LGALS3 and CTSD concentrations were also assessed in serum samples from six patients before and after they begin the treatment.
(§2) The study was approved by the Eunice Kennedy Shriver National Institute of Child Health and Human Development Institutional Review Board. Informed consent and, when appropriate, assent were obtained. Serum samples were obtained from 16 male and 14 female NPC1 patients participating in a Natural History trial (06-CH-0186) and 16 control individuals of similar age and gender distribution. Mean age of patients and controls were 7.9±5.8 years old and 9.1±4.2 years old respectively (P-value=0.3720). Phenotypic severity was determined using the severity scale developed by Yanjanin et al., Am. J. Med. Genet. B. Neuropsychiatr. Genet. 153B:132-40 (2010), and ranged from 0 to 40. […]
(§3) Serum levels of cathepsin D (CTSD; EMD Millipore, Billerica, Mass.), and galectin-3 (LGALS3; R&D systems, Minneapolis, Minn.) were measured in triplicate by ELISA, following manufacturers' instructions. […]

[2] = tested on: cathepsin D (CTSD); experiment: Serum cathepsin D (CTSD) by ELISA in NPC1 patients treated or not with miglustat; format: in vivo, human
Experimental: as §1, §2, §3

[3] = NPC patients; Patterson et al., Lancet Neurol. 6:765-72 (2007); cited from earlier work

CCCCN1C[C@H](O)[C@@H](O)[C@H](O)[C@H]1CO [miglustat]
LGALS3 concentrations in serum of NPC patients treated or not with miglustat ([1]; NPC1 patients, off-label miglustat versus untreated group, serum, FIG. 7B): No statistical difference; also recorded: no significant differences
Effect of miglustat treatment on LGALS3 level, before versus after start of treatment ([1]; six patients, serum samples before and after beginning treatment, FIG. 7D): did not have any effect
CTSD concentrations in serum of NPC patients treated or not with miglustat ([2]; NPC1 patients, off-label miglustat versus untreated group, serum, FIG. 7C): No statistical difference; also recorded: no significant differences
Effect of miglustat treatment on CTSD level, before versus after start of treatment ([2]; six patients, serum samples before and after beginning treatment, FIG. 7E): did not have any effect
Efficacy in slowing the neurological progression of the disease [3]: has shown efficacy in slowing the neurological progression of the disease

Reference: patent US20140370521A1, “IDENTIFICATION OF TWO NOVEL BIOMARKERS FOR NIEMANN-PICK DISEASE TYPE C” (The USA , as Represented by the Secretary, Department of …, priority 2011, published 2014)
